From PubChem BioAssay (NCI)
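Growth conditions: 96-well plates. Treatment: test compound, 48 hours, 5 concentrations. Analysis: linear interpolation between bracketing concentrations; unreached endpoints set to highest concentration. The concentration for 50% growth inhibition is given as GI50. At the TGI there is no net growth.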

Legend:
Test in all cases: NCI tumour cell line growth inhibition, 48 h
OVCAR-5 ovarian = test system: OVCAR-5 ovarian
OVCAR-3 ovarian = test system: OVCAR-3 ovarian
UACC-62 melanoma = test system: UACC-62 melanoma
CCRF-CEM leukemia = test system: CCRF-CEM leukemia
BT-549 breast = test system: BT-549 breast
SNB-75 CNS = test system: SNB-75 CNS
NCI-H522 lung = test system: NCI-H522 lung
A549 NSCLC = test system: A549 NSCLC
SK-MEL-28 melanoma = test system: SK-MEL-28 melanoma
NCI-H226 lung = test system: NCI-H226 lung
SF-539 CNS = test system: SF-539 CNS
M14 melanoma = test system: M14 melanoma
KM12 colon = test system: KM12 colon
NCI-H23 lung = test system: NCI-H23 lung
ACHN renal = test system: ACHN renal
K-562 leukemia = test system: K-562 leukemia
SR leukemia = test system: SR leukemia
HCT-15 colon = test system: HCT-15 colon
MCF7 breast = test system: MCF7 breast
SF-268 CNS = test system: SF-268 CNS
UACC-257 melanoma = test system: UACC-257 melanoma
SF-295 CNS = test system: SF-295 CNS
NCI/ADR-RES ovarian = test system: NCI/ADR-RES ovarian
SNB-19 CNS = test system: SNB-19 CNS
HCC-2998 colon = test system: HCC-2998 colon
HOP-62 NSCLC = test system: HOP-62 NSCLC
MDA-MB-435 = test system: MDA-MB-435
SK-OV-3 ovarian = test system: SK-OV-3 ovarian
OVCAR-4 ovarian = test system: OVCAR-4 ovarian
COLO 205 colon = test system: COLO 205 colon
U251 CNS = test system: U251 CNS
UO-31 renal = test system: UO-31 renal
T-47D breast = test system: T-47D breast
786-0 renal = test system: 786-0 renal
SK-MEL-5 melanoma = test system: SK-MEL-5 melanoma
LOX IMVI melanoma = test system: LOX IMVI melanoma
IGROV1 ovarian = test system: IGROV1 ovarian
TK-10 renal = test system: TK-10 renal
PC-3 prostate = test system: PC-3 prostate
DU-145 prostate = test system: DU-145 prostate
RPMI-8226 leukemia = test system: RPMI-8226 leukemia
RXF 393 renal = test system: RXF 393 renal
EKVX NSCLC = test system: EKVX NSCLC
CAKI-1 renal = test system: CAKI-1 renal
HL-60(TB) leukemia = test system: HL-60(TB) leukemia
NCI-H460 lung = test system: NCI-H460 lung
OVCAR-8 ovarian = test system: OVCAR-8 ovarian
HOP-92 NSCLC = test system: HOP-92 NSCLC
HCT-116 colon = test system: HCT-116 colon
HT29 colon = test system: HT29 colon
SW-620 colon = test system: SW-620 colon
SK-MEL-2 melanoma = test system: SK-MEL-2 melanoma
SN12C renal = test system: SN12C renal
MDA-MB-231 breast = test system: MDA-MB-231 breast
HS 578T breast = test system: HS 578T breast
MOLT-4 leukemia = test system: MOLT-4 leukemia
A498 renal = test system: A498 renal
MALME-3M melanoma = test system: MALME-3M melanoma

O=c1c2cc(I)ccc2nc(-c2cccs2)n1/N=C/c1ccccc1
TGI (OVCAR-5 ovarian): > 100 µM
TGI (OVCAR-3 ovarian): > 100 µM
TGI (UACC-62 melanoma): > 100 µM
TGI (CCRF-CEM leukemia): > 100 µM
TGI (BT-549 breast): > 100 µM
TGI (SNB-75 CNS): > 100 µM
TGI (NCI-H522 lung): > 100 µM
TGI (A549 NSCLC): > 100 µM
TGI (SK-MEL-28 melanoma): > 100 µM
TGI (NCI-H226 lung): > 100 µM
TGI (SF-539 CNS): > 100 µM
TGI (M14 melanoma): > 100 µM
TGI (KM12 colon): > 100 µM
TGI (NCI-H23 lung): > 100 µM
TGI (ACHN renal): > 100 µM
TGI (K-562 leukemia): > 100 µM
TGI (SR leukemia): > 100 µM
TGI (HCT-15 colon): > 100 µM
TGI (MCF7 breast): > 100 µM
TGI (SF-268 CNS): > 100 µM
TGI (UACC-257 melanoma): > 100 µM
TGI (SF-295 CNS): > 100 µM
TGI (NCI/ADR-RES ovarian): > 100 µM
TGI (SNB-19 CNS): > 100 µM
TGI (HCC-2998 colon): > 100 µM
TGI (HOP-62 NSCLC): > 100 µM
TGI (MDA-MB-435): > 100 µM
TGI (SK-OV-3 ovarian): > 100 µM
TGI (OVCAR-4 ovarian): > 100 µM
TGI (COLO 205 colon): > 100 µM
TGI (U251 CNS): > 100 µM
TGI (UO-31 renal): > 100 µM
TGI (T-47D breast): > 100 µM
TGI (786-0 renal): > 100 µM
TGI (SK-MEL-5 melanoma): > 100 µM
TGI (LOX IMVI melanoma): > 100 µM
TGI (IGROV1 ovarian): > 100 µM
TGI (TK-10 renal): > 100 µM
TGI (PC-3 prostate): > 100 µM
TGI (DU-145 prostate): > 100 µM
TGI (RPMI-8226 leukemia): > 100 µM
TGI (RXF 393 renal): > 100 µM
TGI (EKVX NSCLC): > 100 µM
TGI (CAKI-1 renal): > 100 µM
TGI (HL-60(TB) leukemia): > 100 µM
TGI (NCI-H460 lung): > 100 µM
TGI (OVCAR-8 ovarian): > 100 µM
TGI (HOP-92 NSCLC): > 100 µM
TGI (HCT-116 colon): > 100 µM
TGI (HT29 colon): > 100 µM
TGI (SW-620 colon): > 100 µM
TGI (SK-MEL-2 melanoma): > 100 µM
TGI (SN12C renal): > 100 µM

COc1ccc(OC)c(/C=C/c2nc(SCc3ccccc3)n(-c3ccc(Cl)cc3)n2)c1
GI50 (OVCAR-5 ovarian): > 100 µM
TGI (OVCAR-5 ovarian): > 100 µM
GI50 (OVCAR-3 ovarian): 3.54 µM
TGI (OVCAR-3 ovarian): 12 µM
GI50 (UACC-62 melanoma): 6.15 µM
TGI (UACC-62 melanoma): > 100 µM
GI50 (CCRF-CEM leukemia): 4.11 µM
TGI (CCRF-CEM leukemia): > 100 µM
GI50 (BT-549 breast): 11.6 µM
TGI (BT-549 breast): 38.5 µM
GI50 (SNB-75 CNS): 3.92 µM
TGI (SNB-75 CNS): > 100 µM
GI50 (NCI-H522 lung): 3.39 µM
TGI (NCI-H522 lung): 25 µM
GI50 (A549 NSCLC): 6.79 µM
TGI (A549 NSCLC): > 100 µM
GI50 (SK-MEL-28 melanoma): 28.5 µM
TGI (SK-MEL-28 melanoma): > 100 µM
GI50 (NCI-H226 lung): 27.8 µM
TGI (NCI-H226 lung): > 100 µM
GI50 (SF-539 CNS): 4.25 µM
TGI (SF-539 CNS): > 100 µM
GI50 (M14 melanoma): 4.22 µM
TGI (M14 melanoma): > 100 µM
GI50 (KM12 colon): 4.99 µM
TGI (KM12 colon): > 100 µM
GI50 (NCI-H23 lung): 6.85 µM
TGI (NCI-H23 lung): > 100 µM
GI50 (ACHN renal): 23.2 µM
TGI (ACHN renal): > 100 µM
GI50 (K-562 leukemia): 4.23 µM
TGI (K-562 leukemia): > 100 µM
GI50 (SR leukemia): 3.53 µM
TGI (SR leukemia): > 100 µM
GI50 (MDA-MB-231 breast): 30.9 µM
TGI (MDA-MB-231 breast): > 100 µM
GI50 (HCT-15 colon): 5.01 µM
TGI (HCT-15 colon): > 100 µM
GI50 (MCF7 breast): 4.78 µM
TGI (MCF7 breast): > 100 µM
GI50 (SF-268 CNS): 8.39 µM
TGI (SF-268 CNS): > 100 µM
GI50 (UACC-257 melanoma): > 100 µM
TGI (UACC-257 melanoma): > 100 µM
GI50 (SF-295 CNS): 3.5 µM
TGI (SF-295 CNS): 36.6 µM
GI50 (NCI/ADR-RES ovarian): 2.25 µM
TGI (NCI/ADR-RES ovarian): > 100 µM
GI50 (SNB-19 CNS): 14.3 µM
TGI (SNB-19 CNS): > 100 µM
GI50 (HCC-2998 colon): 8.24 µM
TGI (HCC-2998 colon): > 100 µM
GI50 (HOP-62 NSCLC): 9.57 µM
TGI (HOP-62 NSCLC): > 100 µM
GI50 (SK-OV-3 ovarian): 8.21 µM
TGI (SK-OV-3 ovarian): > 100 µM
GI50 (HS 578T breast): 5.23 µM
TGI (HS 578T breast): > 100 µM
GI50 (OVCAR-4 ovarian): 67 µM
TGI (OVCAR-4 ovarian): > 100 µM
GI50 (COLO 205 colon): 14.6 µM
TGI (COLO 205 colon): > 100 µM
GI50 (U251 CNS): 5.35 µM
TGI (U251 CNS): > 100 µM
GI50 (MOLT-4 leukemia): 6.51 µM
TGI (MOLT-4 leukemia): > 100 µM
GI50 (T-47D breast): 11.5 µM
TGI (T-47D breast): 84.6 µM
GI50 (786-0 renal): 7.66 µM
TGI (786-0 renal): > 100 µM
GI50 (A498 renal): 4.54 µM
TGI (A498 renal): 88.4 µM
GI50 (SK-MEL-5 melanoma): 4.75 µM
TGI (SK-MEL-5 melanoma): 21.9 µM
GI50 (LOX IMVI melanoma): 2.89 µM
TGI (LOX IMVI melanoma): > 100 µM
GI50 (IGROV1 ovarian): 13.1 µM
TGI (IGROV1 ovarian): > 100 µM
GI50 (TK-10 renal): 30.6 µM
TGI (TK-10 renal): > 100 µM
GI50 (PC-3 prostate): 33.3 µM
TGI (PC-3 prostate): > 100 µM
GI50 (DU-145 prostate): 9.9 µM
TGI (DU-145 prostate): > 100 µM
GI50 (RPMI-8226 leukemia): 7.39 µM
TGI (RPMI-8226 leukemia): > 100 µM
GI50 (RXF 393 renal): 26.6 µM
TGI (RXF 393 renal): > 100 µM
GI50 (EKVX NSCLC): 9.89 µM
TGI (EKVX NSCLC): > 100 µM
GI50 (CAKI-1 renal): 2.09 µM
TGI (CAKI-1 renal): 5.28 µM
GI50 (HL-60(TB) leukemia): 3.14 µM
TGI (HL-60(TB) leukemia): 9.86 µM
GI50 (NCI-H460 lung): 4.17 µM
TGI (NCI-H460 lung): > 100 µM
GI50 (OVCAR-8 ovarian): 9.36 µM
TGI (OVCAR-8 ovarian): > 100 µM
GI50 (HOP-92 NSCLC): > 100 µM
TGI (HOP-92 NSCLC): > 100 µM
GI50 (HCT-116 colon): 4.04 µM
TGI (HCT-116 colon): > 100 µM
GI50 (HT29 colon): 3.93 µM
TGI (HT29 colon): 21.5 µM
GI50 (SW-620 colon): 5.05 µM
TGI (SW-620 colon): > 100 µM
GI50 (SK-MEL-2 melanoma): 6.38 µM
TGI (SK-MEL-2 melanoma): > 100 µM
GI50 (SN12C renal): 8.1 µM
TGI (SN12C renal): > 100 µM

COc1ccc(OC)c2c3c([nH]c12)C(=O)Nc1nc(N)nc(N)c1C3
TGI (OVCAR-5 ovarian): > 100 µM
TGI (OVCAR-3 ovarian): > 100 µM
TGI (BT-549 breast): > 100 µM
TGI (SK-MEL-28 melanoma): > 100 µM
TGI (NCI-H226 lung): > 100 µM
TGI (M14 melanoma): > 100 µM
TGI (KM12 colon): > 100 µM
TGI (UACC-257 melanoma): > 100 µM
TGI (HCC-2998 colon): > 100 µM
TGI (MDA-MB-435): > 100 µM
TGI (SK-OV-3 ovarian): > 100 µM
TGI (OVCAR-4 ovarian): > 100 µM
TGI (T-47D breast): > 100 µM
TGI (786-0 renal): > 100 µM
TGI (LOX IMVI melanoma): > 100 µM
TGI (TK-10 renal): > 100 µM
TGI (DU-145 prostate): > 100 µM
TGI (RXF 393 renal): > 100 µM
TGI (EKVX NSCLC): > 100 µM
TGI (MALME-3M melanoma): > 100 µM
TGI (OVCAR-8 ovarian): > 100 µM
TGI (HOP-92 NSCLC): > 100 µM
TGI (HT29 colon): 4.49 µM
TGI (SW-620 colon): > 100 µM
TGI (SK-MEL-2 melanoma): > 100 µM
